From paper PMC6625372 (Frontiers in Oncology, 2019)

How the values were obtained:
SK-N-AS = assay: Cell cycle analysis (DAPI, NucleoCounter NC-3000); settings: SK-N-AS control cell line, 24 h, 75 and 150 nM
CLB-BAR [1] = assay: Cell cycle analysis (DAPI, NucleoCounter NC-3000); settings: 24 h, 75 and 150 nM
CLB-GE [2] = assay: Cell cycle analysis (DAPI, NucleoCounter NC-3000); settings: 24 h, 75 and 150 nM
[3] = system: SK-N-AS (11q-del, K-RasQ61K); assay: Apoptosis analysis, cleaved PARP immunoblot; assay type: cell-based; settings: 100 nM, 24 h
CLB-BAR [4] = assay: Apoptosis analysis, cleaved PARP immunoblot; assay type: cell-based; settings: 100 nM, 24 h
IMR-32 = assay: Apoptosis analysis, cleaved PARP immunoblot; assay type: cell-based; settings: IMR-32, 100 nM, 24 h
Method: (§1) Supplementary Figure 3. Investigation of apoptosis in wild type neuroblastoma cell lines when treated with alectinib. […] Cell lysates were immunoblotted for PARP and ERK (employed as loading control). […] Three independent experiments were performed.

CLB-PE = assay: Apoptosis analysis, cleaved PARP immunoblot; assay type: cell-based; settings: 100 nM, 24 h
Method: as §1

CLB-BAR cells = assay: Neuroblastoma xenograft mouse model with tumor immunohistochemistry; assay type: in vivo, BALB/cAnNRj-Foxn1nu mice; settings: for CD31 (vascularization) in tumors / Ki-67 positivity in tumors, analysis by Ilastik / cleaved caspase positive apoptotic cells in tumors vs vehicle / phospho-histone H3 in tumors vs vehicle / Ki-67 manual analysis, lower median when compared to vehicle (95% CI): day 14; for CD31 (vascularization) in tumors / Ki-67 positivity in tumors, analysis by Ilastik / cleaved caspase positive apoptotic cells in tumors vs vehicle / phospho-histone H3 in tumors vs vehicle: alectinib 20 mg/kg, crizotinib 80 mg/kg once daily; for Ki-67 manual analysis, lower median when compared to vehicle (95% CI): counts normalized against vehicle, 4 independent investigators
Method: Results for repotrectinib will be presented elsewhere. […] Tumor volume was measured by calipers every second day and calculated by the following equation: V = (π/6) × L × W^2 (V, volume; L, longest; W, width).
At the end of the experiment xenograft tumors (n = 5 for each tumor category) were harvested and fixed in 4% paraformaldehyde for 72 h. Following fixation, the tumors were imbedded in paraffin blocks and sectioned in […] slices with a manual microtome. Heat-induced epitope retrieval (HIER), using citrate buffer 0.01 M, pH 6, was performed before staining. HIER was achieved through a sequence where citrate buffer, containing the slides, was brought up to boiling, sub-boiled for 5 min following 10 s of intermediate cooling. The sequence was performed three times with cooling (5 min) in between. Following washing in distillated H2O (3 × 5 min), the slides were immerged in 3% H2O2 for 15 min and then washed in tris-buffered saline-Tween 20 (TBST) for 5 min. A hydrophobic pen was used to set a margin encircling the samples on the slides. […] The slides were incubated for 48 h in a cold room after being covered with antibody diluent. […] Additional washing steps in TBST (3 × 5 min) were carried out. […] The slides were counterstained with Mayer's hematoxylin solution (Sigma-Aldrich SLBK8961V), dehydrated and mounted.
Hamamatsu NanoZoomer-SQ Digital slide scanner (C13140-01) with a x20 (NA 0.75) objective was used to obtain digital images of the slides. Slides were randomly blinded to the investigator. For each of the blinded slides, a representative 1 mm^2 area was selected employing NanoZoomer Digital Pathology viewer. The slide-image was cropped, containing the area of interest, and saved, as a TIF-file at × 20 resolution. The saved TIF-files were cropped, using ImageJ (Fiji) ([44]), into merely encompassing the 1 mm^2 area of interest.
The 6–7 images were then uploaded into Ilastik ([45]), an interactive machine-learning toolkit, and used as a learning foundation for the software (see program code, Supplementary Data Sheet 3). Once the software analyzed the learning images, the whole batches were processed in Ilastik. The output was then transferred to ImageJ where a macro (see program code, Supplementary Data Sheet 2) calculated the area of staining. The pixel size acquired from NanoZoomer Digital Pathology viewer was accounted for in the macro. Ki-67 immunohistochemistry was also analyzed manually. […] Ninety five percent confidence intervals for the difference between median were retrieved with GraphPad.
GraphPad Prism 7.0 was used for statistical analysis. A non-parametric test was performed acquiring P-values by applying a Mann-Whitney test.

CLB-GE [5] = assay: Apoptosis analysis, cleaved PARP immunoblot; assay type: cell-based; settings: 100 nM, 24 h

CCc1cc2c(cc1N1CCC(N3CCOCC3)CC1)C(C)(C)c1[nH]c3cc(C#N)ccc3c1C2=O [alectinib]
cell cycle progression, G1 accumulation (SK-N-AS): not observed
cell cycle progression, G1 accumulation (CLB-BAR [1]): increased G1 accumulation
cell cycle progression, G1 accumulation (CLB-GE [2]): increased G1 accumulation
cleaved PARP levels [3]: no difference was observed
cleaved PARP levels (CLB-BAR [4]): significant increase of cleaved PARP levels
cleaved PARP levels (IMR-32): no difference was observed
cleaved PARP levels (CLB-PE): no difference was observed
growth of neuroblastoma xenografts (CLB-BAR cells; 20 mg/kg bodyweight once daily, 14 days, vs vehicle): effectively abrogated growth
body weight and side effects during treatment (CLB-BAR cells; 20 mg/kg once daily, 14 days): No difference in body weight or obvious side effects
xenograft tumor volume compared with vehicle (CLB-BAR cells; 20 mg/kg once daily, day 6 p = 0.0222, day 8 p < 0.0001, day 14 p = 0.0072): significantly reduced
tumor growth inhibition compared with crizotinib (CLB-BAR cells; alectinib 20 mg/kg vs crizotinib 80 mg/kg once daily, 14 days): more effective than with crizotinib
CD31 (vascularization) in tumors (CLB-BAR cells): significant increase
Ki-67 positivity in tumors, analysis by Ilastik (CLB-BAR cells): non-significant decrease
cleaved caspase positive apoptotic cells in tumors vs vehicle (CLB-BAR cells): significantly lower
phospho-histone H3 in tumors vs vehicle (CLB-BAR cells): significant decrease
Ki-67 manual analysis, lower median when compared to vehicle (95% CI) (CLB-BAR cells): 0.46 (95% CI 0.32–0.52)
cleaved PARP levels (CLB-GE [5]): significant increase of cleaved PARP levels

C[C@@H](Oc1cc(-c2cnn(C3CCNCC3)c2)cnc1N)c1c(Cl)ccc(F)c1Cl [crizotinib]
CD31 (vascularization) in tumors (CLB-BAR cells): significant increase
Ki-67 positivity in tumors, analysis by Ilastik (CLB-BAR cells): modest, but significant reduction
cleaved caspase positive apoptotic cells in tumors vs vehicle (CLB-BAR cells): non-significant decrease
phospho-histone H3 in tumors vs vehicle (CLB-BAR cells): not observed
Ki-67 manual analysis, lower median when compared to vehicle (95% CI) (CLB-BAR cells): 0.49 (95% CI 0.47–0.50)
